Like-named read-outs stand apart in the source and are kept apart here.
Legend:
[1] = tested on: C3 convertase of the alternative pathway; assay: Western blot of red blood cell membranes, alternative pathway with C1 inhibitor (FIG. 5); type: cell-based, human; conditions: 1 microM; serum 15 fold dilution, zymosan, C1 inhibitor 1.8 micrograms/mL
Experimental: To determine the effects of DAS-1 and DAS-2 on the alternative pathway, further experiments were carried out as shown in FIG. 5. […] To these mixtures human RBCs (5×10^9) were added. The mixtures were incubated for 1 h at 37° C. and centrifuged at 5,000 rpm for […]. The pellets were washed two times with Hank's balanced salt solution (HBSS) and treated with sample loading buffer for SDS-PAGE and immunoblotting. The buffer consisted of 50 mM Tris (pH 6.8), 0.1% SDS, 0.1% bromophenol blue and 10% glycerol. To preserve the molecular complexes that had formed, mild conditions for SDS-PAGE were followed. The sample loading buffer used was 50 mM Tris (pH 6.8), 1% SDS, 0.1% bromophenol blue and 10% glycerol and 2% beta-mercaptoethanol.
However an independent band for C3b was not detected. […] Lanes 3 and 4 show the results obtained in the presence of 1 microM of DAS-1 or DAS-2. […] Instead, strong bands for the earlier steps of PC3b and PC3bB appeared.

[2] = tested on: classical complement pathway; assay: CH50 assay, hemolysis of sensitized human red blood cells by zymosan-activated rat serum; type: cell-based; conditions: Erythrocyte, read-out: IC50, protection of human red blood cells from complement attack
Experimental: To evaluate the strength of blockade of the classical complement pathway achieved by DAS-1 and DAS-2, a standard CH50 assay was employed. Normal human red blood cells were sensitized by incubation overnight with rabbit anti red blood cell antibody. Then dilutions of serum activated by zymosan, with and without various amounts of DAS-1, DAS-2, or the precursor acetylsalicylic acid, were incubated with the sensitized red blood cells for 1 hour at 37° C. The incubates were centrifuged at 5,000 rpm for 10 min. The hemoglobin released into the serum from red blood cells that had been destroyed by complement attack, was determined by reading the optical density (OD) at 405 nm. As a positive control, red blood cells were 100% lysed with water, and as a negative control, no serum was added to the incubate.
DAS-1 and DAS-2 protected human red blood cells from complement attack by zymogen activated serum of human, rat, cat, and dog. FIG. 3A illustrates the result for DAS-1.

C8 = target: T1, C8 (Homo sapiens, UniProt P07357+P07358+P07360); assay: Fluorometric binding to immobilized protein (FIG. 6); conditions: compound 100 microgm/mL; protein 32 ng/mL
T1 construct: purchased Sigma, St. Louis, MO
T1 sequence (P07357 31-584): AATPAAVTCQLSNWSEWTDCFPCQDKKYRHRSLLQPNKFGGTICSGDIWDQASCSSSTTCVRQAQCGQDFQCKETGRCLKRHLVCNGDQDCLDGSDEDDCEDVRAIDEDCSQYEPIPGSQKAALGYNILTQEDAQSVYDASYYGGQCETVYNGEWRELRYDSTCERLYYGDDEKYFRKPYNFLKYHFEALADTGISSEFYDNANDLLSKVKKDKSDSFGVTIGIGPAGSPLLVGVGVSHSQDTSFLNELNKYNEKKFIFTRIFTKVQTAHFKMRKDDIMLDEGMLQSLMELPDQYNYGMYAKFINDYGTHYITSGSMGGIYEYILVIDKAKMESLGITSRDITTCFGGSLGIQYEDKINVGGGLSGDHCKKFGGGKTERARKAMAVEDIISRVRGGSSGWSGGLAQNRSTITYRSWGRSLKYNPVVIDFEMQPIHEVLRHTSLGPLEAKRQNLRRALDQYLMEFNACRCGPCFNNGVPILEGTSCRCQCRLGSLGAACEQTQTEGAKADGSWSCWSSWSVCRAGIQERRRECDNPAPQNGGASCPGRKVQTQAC
T1 sequence (P07358 55-591): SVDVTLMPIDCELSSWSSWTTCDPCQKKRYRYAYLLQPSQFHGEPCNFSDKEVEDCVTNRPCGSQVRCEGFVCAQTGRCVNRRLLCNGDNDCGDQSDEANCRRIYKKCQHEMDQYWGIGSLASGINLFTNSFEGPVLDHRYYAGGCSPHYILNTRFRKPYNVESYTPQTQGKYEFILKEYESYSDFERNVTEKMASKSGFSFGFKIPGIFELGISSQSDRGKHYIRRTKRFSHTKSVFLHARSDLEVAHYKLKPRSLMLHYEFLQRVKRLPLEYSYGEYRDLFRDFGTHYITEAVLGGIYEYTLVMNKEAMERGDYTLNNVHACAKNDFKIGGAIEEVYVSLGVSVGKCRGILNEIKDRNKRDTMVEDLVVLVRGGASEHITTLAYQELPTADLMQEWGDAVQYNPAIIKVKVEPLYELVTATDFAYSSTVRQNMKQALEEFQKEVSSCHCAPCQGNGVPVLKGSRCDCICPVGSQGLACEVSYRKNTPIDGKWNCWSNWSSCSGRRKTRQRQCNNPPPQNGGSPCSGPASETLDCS
T1 sequence (P07360 21-202): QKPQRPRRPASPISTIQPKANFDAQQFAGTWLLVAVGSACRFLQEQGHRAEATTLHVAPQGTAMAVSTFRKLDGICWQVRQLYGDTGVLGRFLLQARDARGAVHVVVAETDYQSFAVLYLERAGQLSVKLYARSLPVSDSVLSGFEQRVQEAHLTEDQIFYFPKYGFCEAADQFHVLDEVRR
Experimental: (§1) The next set of experiments directly tested the binding of DAS-1 and DAS-2 to properdin, Factor D and complement proteins. These proteins were immobilized on microwell plates in a concentration range of 1-32 ng/mL. DAS-1 and DAS-2 were then added at a concentration of 100 microgm/mL and the solutions incubated as previously described. DAS-1 and DAS-2 binding to the proteins was then assayed according to a previously published fluorometric method except that the excitation frequency was […] and the emission frequency […]. […] Such binding explains why DAS-1 and DAS-2 block the alternative pathway at the stage where Factor D cleaves PC3B to form PC3Bb, and both the classical and alternative pathways at the stage where C9 adds to C5b678. […] There was no binding of DAS-1 or DAS-2 to properdin and only background fluorescence was observed.

C7 = target: T2, C7 (Homo sapiens, UniProt P10643); assay: as above; conditions: compound 100 microgm/mL; protein 32 ng/mL
T2 construct: purchased Quidel, San Diego, CA
T2 sequence (P10643 23-843): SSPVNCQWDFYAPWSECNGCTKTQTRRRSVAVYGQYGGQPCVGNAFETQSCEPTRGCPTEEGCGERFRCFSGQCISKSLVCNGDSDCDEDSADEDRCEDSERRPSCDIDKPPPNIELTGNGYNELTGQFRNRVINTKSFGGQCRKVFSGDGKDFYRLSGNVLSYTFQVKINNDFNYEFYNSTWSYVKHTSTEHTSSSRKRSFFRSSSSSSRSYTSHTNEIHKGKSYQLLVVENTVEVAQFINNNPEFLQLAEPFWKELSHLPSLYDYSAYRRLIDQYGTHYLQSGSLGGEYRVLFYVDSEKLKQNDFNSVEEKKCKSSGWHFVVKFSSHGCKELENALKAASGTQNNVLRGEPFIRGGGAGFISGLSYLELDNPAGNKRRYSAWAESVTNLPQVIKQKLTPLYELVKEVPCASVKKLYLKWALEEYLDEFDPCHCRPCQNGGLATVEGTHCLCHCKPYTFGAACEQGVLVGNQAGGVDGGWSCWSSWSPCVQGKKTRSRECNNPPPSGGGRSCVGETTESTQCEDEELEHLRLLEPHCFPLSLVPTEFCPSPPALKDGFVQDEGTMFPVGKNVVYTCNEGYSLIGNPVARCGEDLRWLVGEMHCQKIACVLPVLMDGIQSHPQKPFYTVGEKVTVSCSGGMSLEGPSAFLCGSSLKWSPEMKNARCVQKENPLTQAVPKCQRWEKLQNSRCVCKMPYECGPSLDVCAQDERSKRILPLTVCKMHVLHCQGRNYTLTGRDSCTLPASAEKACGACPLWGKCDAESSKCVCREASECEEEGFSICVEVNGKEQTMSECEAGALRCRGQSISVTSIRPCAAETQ
Experimental: as §1

C9 = target: T3, C9 (Homo sapiens, UniProt P02748); assay: as above; conditions: compound 100 microgm/mL; protein immobilized 1-32 ng/mL
T3 construct: purchased Sigma, St. Louis, MO
T3 sequence (P02748 22-559): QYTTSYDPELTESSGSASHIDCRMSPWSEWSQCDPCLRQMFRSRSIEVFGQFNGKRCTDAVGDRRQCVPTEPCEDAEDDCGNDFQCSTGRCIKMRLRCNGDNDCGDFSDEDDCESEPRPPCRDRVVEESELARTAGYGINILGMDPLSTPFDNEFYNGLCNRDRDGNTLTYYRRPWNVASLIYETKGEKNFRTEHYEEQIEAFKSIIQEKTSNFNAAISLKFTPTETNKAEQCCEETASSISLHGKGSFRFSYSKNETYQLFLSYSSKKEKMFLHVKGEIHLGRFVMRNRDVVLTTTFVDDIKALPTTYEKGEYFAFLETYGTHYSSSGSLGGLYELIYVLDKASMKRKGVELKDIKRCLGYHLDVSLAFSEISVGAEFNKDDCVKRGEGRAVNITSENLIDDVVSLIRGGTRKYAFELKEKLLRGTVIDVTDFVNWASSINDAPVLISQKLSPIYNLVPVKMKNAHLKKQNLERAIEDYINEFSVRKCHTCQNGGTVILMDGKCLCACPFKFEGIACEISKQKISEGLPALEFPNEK
Experimental: as §1

C2 = target: T4, C2 (Homo sapiens, UniProt P06681); assay: as above; conditions: compound 100 microgm/mL; protein 32 ng/mL
T4 construct: purchased Sino Biologicals Inc., Beijing, China
T4 sequence (P06681 21-752): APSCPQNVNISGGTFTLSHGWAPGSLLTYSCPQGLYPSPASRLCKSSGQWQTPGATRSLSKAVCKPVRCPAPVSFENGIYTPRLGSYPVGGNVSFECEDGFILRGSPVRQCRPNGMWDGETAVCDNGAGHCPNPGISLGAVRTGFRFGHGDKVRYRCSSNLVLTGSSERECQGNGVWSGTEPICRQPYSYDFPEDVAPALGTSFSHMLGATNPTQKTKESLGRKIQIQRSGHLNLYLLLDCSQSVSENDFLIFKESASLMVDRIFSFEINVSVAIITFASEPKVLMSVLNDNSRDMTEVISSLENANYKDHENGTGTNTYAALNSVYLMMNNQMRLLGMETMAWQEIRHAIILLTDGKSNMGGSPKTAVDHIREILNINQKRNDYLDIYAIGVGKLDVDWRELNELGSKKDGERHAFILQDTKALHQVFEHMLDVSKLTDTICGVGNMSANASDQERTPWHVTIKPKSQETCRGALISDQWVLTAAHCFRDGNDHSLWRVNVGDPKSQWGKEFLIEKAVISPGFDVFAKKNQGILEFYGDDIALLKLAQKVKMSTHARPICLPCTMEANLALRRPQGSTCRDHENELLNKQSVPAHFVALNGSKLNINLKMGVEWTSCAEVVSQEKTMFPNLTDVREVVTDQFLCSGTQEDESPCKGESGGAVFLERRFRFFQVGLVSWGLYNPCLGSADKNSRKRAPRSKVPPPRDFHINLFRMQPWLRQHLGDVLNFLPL
Experimental: as §1

Factor D = target: T5, Factor D (Homo sapiens, UniProt P00746); assay: as above; conditions: compound 100 microgm/mL; protein immobilized 1-32 ng/mL
T5 construct: purchased Quidel, San Diego, CA
T5 sequence (P00746 26-253): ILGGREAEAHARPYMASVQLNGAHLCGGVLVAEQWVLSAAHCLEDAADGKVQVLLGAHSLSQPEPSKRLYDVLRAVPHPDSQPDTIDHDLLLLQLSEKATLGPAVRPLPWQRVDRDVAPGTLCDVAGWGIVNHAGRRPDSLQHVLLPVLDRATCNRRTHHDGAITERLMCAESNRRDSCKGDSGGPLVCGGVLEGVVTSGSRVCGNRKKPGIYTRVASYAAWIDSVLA
Experimental: as §1

C5 = target: T6, C5 (Homo sapiens, UniProt P01031); assay: as above; conditions: compound 100 microgm/mL; protein 32 ng/mL
T6 construct: purchased Complement technology Inc., Tyler, TX
Experimental: as §1

C6 = target: T7, C6 (Homo sapiens, UniProt P13671); assay: as above; conditions: compound 100 microgm/mL; protein 32 ng/mL
T7 construct: purchased Sigma, St. Louis, MO
T7 sequence (P13671 22-934): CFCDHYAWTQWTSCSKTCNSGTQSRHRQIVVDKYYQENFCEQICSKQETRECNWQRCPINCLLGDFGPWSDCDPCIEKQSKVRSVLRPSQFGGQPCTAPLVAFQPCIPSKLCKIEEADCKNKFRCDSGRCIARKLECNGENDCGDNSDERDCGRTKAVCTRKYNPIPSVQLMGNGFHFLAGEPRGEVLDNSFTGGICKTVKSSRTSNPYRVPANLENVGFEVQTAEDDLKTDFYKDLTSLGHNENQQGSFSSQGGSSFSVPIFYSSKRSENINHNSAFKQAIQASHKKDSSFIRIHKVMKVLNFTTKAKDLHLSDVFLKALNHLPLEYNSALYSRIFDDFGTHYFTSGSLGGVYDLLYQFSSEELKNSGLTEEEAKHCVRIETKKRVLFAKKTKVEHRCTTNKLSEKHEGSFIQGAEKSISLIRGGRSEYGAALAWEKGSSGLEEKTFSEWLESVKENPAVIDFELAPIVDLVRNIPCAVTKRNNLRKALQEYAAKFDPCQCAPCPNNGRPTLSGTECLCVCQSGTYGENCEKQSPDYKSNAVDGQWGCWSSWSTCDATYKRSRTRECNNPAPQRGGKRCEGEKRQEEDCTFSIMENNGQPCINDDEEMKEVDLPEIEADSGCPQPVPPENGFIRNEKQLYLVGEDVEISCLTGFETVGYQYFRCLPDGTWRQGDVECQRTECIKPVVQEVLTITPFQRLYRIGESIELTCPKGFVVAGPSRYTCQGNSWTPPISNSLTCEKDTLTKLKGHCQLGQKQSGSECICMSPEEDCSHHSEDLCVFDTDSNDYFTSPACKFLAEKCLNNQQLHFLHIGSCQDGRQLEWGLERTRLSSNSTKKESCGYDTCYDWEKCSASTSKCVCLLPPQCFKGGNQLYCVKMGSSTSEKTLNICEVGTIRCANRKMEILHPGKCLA
Experimental: as §1

C3 = target: T8, C3 (Homo sapiens, UniProt P01024); assay: as above; conditions: compound 100 microgm/mL; protein 32 ng/mL
T8 construct: purchased Sigma, St. Louis, MO
Experimental: as §1

Factor B = target: T9, Factor B (Homo sapiens, UniProt P00751); assay: as above; conditions: compound 100 microgm/mL; protein 32 ng/mL
T9 construct: purchased Sigma, St. Louis, MO
T9 sequence (P00751 26-764): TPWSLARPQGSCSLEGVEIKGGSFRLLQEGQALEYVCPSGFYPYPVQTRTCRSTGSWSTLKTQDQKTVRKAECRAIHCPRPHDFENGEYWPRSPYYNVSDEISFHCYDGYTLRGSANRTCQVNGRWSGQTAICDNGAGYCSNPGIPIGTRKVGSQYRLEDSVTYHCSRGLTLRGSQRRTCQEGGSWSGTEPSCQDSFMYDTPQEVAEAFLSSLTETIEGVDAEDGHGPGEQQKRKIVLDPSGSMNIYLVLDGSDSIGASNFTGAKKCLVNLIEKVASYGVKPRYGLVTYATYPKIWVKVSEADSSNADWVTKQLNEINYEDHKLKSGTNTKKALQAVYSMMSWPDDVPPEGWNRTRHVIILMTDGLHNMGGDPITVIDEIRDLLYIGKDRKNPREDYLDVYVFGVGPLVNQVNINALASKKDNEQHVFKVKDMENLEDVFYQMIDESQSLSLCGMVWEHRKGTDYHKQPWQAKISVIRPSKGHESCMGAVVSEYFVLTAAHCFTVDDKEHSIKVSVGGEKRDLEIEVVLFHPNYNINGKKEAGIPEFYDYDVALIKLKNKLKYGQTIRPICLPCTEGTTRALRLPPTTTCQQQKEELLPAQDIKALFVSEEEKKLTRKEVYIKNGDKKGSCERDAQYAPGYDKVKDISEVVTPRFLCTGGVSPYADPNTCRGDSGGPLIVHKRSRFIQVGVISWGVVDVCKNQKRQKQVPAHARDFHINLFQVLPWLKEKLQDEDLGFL
Experimental: as §1

properdin = target: T10, properdin (Homo sapiens, UniProt P27918); assay: as above; conditions: compound 100 microgm/mL; only background fluorescence
T10 construct: purchased Quidel, San Diego, CA
T10 sequence (P27918 28-469): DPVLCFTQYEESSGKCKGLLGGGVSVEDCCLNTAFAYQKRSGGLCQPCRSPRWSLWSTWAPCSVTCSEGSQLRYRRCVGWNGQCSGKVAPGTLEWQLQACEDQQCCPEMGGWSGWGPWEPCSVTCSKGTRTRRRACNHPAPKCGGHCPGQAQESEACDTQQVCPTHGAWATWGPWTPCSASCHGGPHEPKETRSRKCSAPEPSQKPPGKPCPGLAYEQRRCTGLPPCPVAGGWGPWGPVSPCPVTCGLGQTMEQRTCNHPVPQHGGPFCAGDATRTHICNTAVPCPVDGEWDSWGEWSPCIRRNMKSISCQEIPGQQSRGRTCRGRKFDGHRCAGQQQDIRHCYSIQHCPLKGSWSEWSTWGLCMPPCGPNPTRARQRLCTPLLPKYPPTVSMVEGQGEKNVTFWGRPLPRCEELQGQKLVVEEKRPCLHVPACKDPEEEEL
Experimental: as §1

SMILES: CC(=O)Oc1ccc(-c2ccc(OC(C)=O)c(C(=O)O)c2)cc1C(=O)O [DAS-1, 4,4′-diacetoxy-[1,1′-biphenyl]-3,3′-dicarboxylic acid]
- bands for PC3bBb and PC3bBbC3b on RBC membranes [1]: did not form
- bands for the earlier steps of PC3b and PC3bB on RBC membranes [1]: strong bands
- IC50 ([2]; 1 hour at 37° C., OD 405 nm): 294 nM
- binding to C8 (C8): did not bind
- binding to C7 (C7): did not bind
- binding to C9 (C9): bound strongly
- binding to C2 (C2): did not bind
- binding to Factor D (Factor D): bound strongly
- binding to C5 (C5): did not bind
- binding to C6 (C6): did not bind
- binding to C3 (C3): did not bind
- binding to Factor B (Factor B): did not bind
- binding to properdin (properdin): no binding

SMILES: CC(=O)Oc1ccc(Cc2ccc(OC(C)=O)c(C(=O)O)c2)cc1C(=O)O [DAS-2, 5,5′-methylenebis(2-acetoxybenzoic acid)]
- bands for PC3bBb and PC3bBbC3b on RBC membranes [1]: did not form
- bands for the earlier steps of PC3b and PC3bB on RBC membranes [1]: strong bands
- IC50 ([2]; unit inferred): 167 nM
- binding to C8 (C8): did not bind
- binding to C7 (C7): did not bind
- binding to C9 (C9): bound strongly
- binding to C2 (C2): did not bind
- binding to Factor D (Factor D): bound strongly
- binding to C5 (C5): did not bind
- binding to C6 (C6): did not bind
- binding to C3 (C3): did not bind
- binding to Factor B (Factor B): did not bind
- binding to properdin (properdin): no binding

From patent US9751824B2, “Acetyl salicyclic acid dimers, synthesis thereof, and uses thereof to prevent and treat complement-mediated disorders” (Aurin Biotech Inc., priority 2013, dated 2017)
